In PubChem BioAssay (NCI) one finds TGI and GI50 data, which are given here for 27 compounds.

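A five-concentration, 48-hour dose response in 96-well plates underlies each endpoint, interpolated linearly between surrounding concentrations. Abbreviation: GI50, concentration required for 50% inhibition of growth. TGI denotes the concentration required for complete inhibition of growth.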

What all share (assay): growth of human tumour cells (NCI), 48 h
Assay [1] deals with HOP-92 NSCLC.
Assay [2] has as its system MALME-3M melanoma.
The test system of assay [3] is K-562 leukemia.
Assay [4] relates to SF-539 CNS.
The subject of assay [5] is SK-OV-3 ovarian.
Assay [6] relates to A498 renal.
The subject of assay [7] is SK-MEL-5 melanoma.
Assay [8] has as its system SNB-19 CNS.
Assay [9] relates to CCRF-CEM leukemia.
The subject of assay [10] is RPMI-8226 leukemia.
The subject of assay [11] is RXF 393 renal.
For assay [12], the system named is T-47D breast.

As for `CCC1(N=[N+]=[N-])C(=O)Nc2cc(C)ccc2C1=O` (stereo not given), the TGI in [1], in assay [2], in assay [3], in assay [4], in assay [5] and in assay [6] was over 100 µM in each case. Moreover, the TGI in assay [7], in assay [8] and in [9] was over 100 µM in each case.
For `Cc1cc(C)nc(Nc2nc3ccc([N+](=O)[O-])cc3[nH]2)n1`, the TGI in [1], in assay [10], in assay [2], in assay [3], in assay [4] and in [6] was over 100 µM throughout. For the same compound, the TGI in assay [7], in assay [8] and in assay [9] was over 100 µM in each case.
With `COC1OC(CO)C(O)C(OC(=O)c2cc(O)c(O)c(O)c2)C1OC(=O)c1cc(O)c(O)c(O)c1` (stereo not given), the TGI in [10], in assay [2], in [3], in assay [4], in assay [5] and in assay [11] was over 100 µM throughout. Further, the TGI in assay [7], in assay [8] and in assay [9] was over 100 µM in each case.
For the compound `CC(=O)c1ccc2c(c1)oc(=O)n2CCN1CCCCC1`, the TGI in assay [10], in assay [2], in assay [3], in assay [4], in assay [5] and in assay [6] was over 100 µM in each case. In addition, the TGI in assay [11], in assay [7], in assay [8] and in [9] was over 100 µM throughout.
As to `O=C(Cc1ccccc1)c1ccc2[nH]c(=O)oc2c1`, the TGI is 64.4 µM in assay [10]; over 100 µM in assay [3]; over 100 µM in [4]; over 100 µM in assay [5]; over 100 µM in [6]; over 100 µM in assay [11]. In [9], this compound had a TGI of over 100 µM.
Take `COc1cc2[nH]c(-c3cccc(N(C)C)c3)cc(=O)c2cc1OC`: the TGI was over 100 µM in [1]; over 100 µM in assay [10]; over 100 µM in assay [2]; over 100 µM in assay [3]; over 21.3 µM in assay [4]; over 100 µM in assay [5]. The TGI in assay [6], in assay [7], in assay [8] and in [9] was over 100 µM in each case.
Turning to `[N-]=[N+]=NC1C(Br)C(=O)NC(=O)N1[C@H]1C[C@H](O)[C@@H](CO)O1` (stereo not given in full), the TGI in assay [1], in assay [10], in assay [2], in assay [3], in assay [4] and in assay [5] was over 100 µM throughout. For the same compound, the TGI in [6], in [11], in assay [7], in assay [8] and in [9] was over 100 µM in each case. Moreover, the GI50 in [10] was 19.6 µM; in [2], 15.5 µM; in [7] it was 42.2 µM; in assay [9] it was 38 µM.
As to `CC(=O)Nc1ccc(C2[C@H]3C(=O)N(c4ccc(Cc5ccc(N6C(=O)[C@@H]7ON(c8ccccc8)C(c8ccc(NC(C)=O)cc8)[C@@H]7C6=O)cc5)cc4)C(=O)[C@H]3ON2c2ccccc2)cc1` (stereo not given in full), the TGI in [10], in [2], in [3], in [4], in assay [5] and in [6] was over 100 µM in each case. The TGI in assay [11], in [7], in assay [8] and in assay [9] was over 100 µM in each case.
Consider `CC(=O)OCC1OC(n2c(=O)n(-c3ccccc3)c(=O)c3ccccc32)C(OC(C)=O)C(OC(C)=O)C1OC(C)=O` (stereo not given), for which the TGI in [1], in assay [10], in assay [2], in assay [3], in [4] and in assay [5] was over 100 µM in each case. Further, the TGI in [6], in assay [11], in assay [7], in [8] and in assay [9] was over 100 µM each time.
`COc1ccc(CN(CCc2c[nH]c3ccccc23)Cc2ccc(OC)cc2)cc1`: the TGI was 9.85 µM in assay [1]; over 41.9 µM in [10]; 8.82 µM in assay [2]; over 100 µM in assay [3]; 3.14 µM in assay [4]; 17.9 µM in assay [5]. Moreover, the TGI in assay [6] was 9.3 µM; in assay [11], 10.8 µM; in [7] it was 9.74 µM; in assay [8], over 44.4 µM; in assay [9] it was over 100 µM.
Regarding `CCOP(=O)(OCC)/C(C#N)=C/c1ccco1`, the TGI in [1], in [10], in [2], in assay [3], in assay [4] and in assay [5] was over 100 µM throughout. For the same compound, the TGI in assay [6], in assay [7] and in [9] was over 100 µM in each case.
In the case of `O=C1CCC2SC1CCC2=O`, the TGI in assay [1], in assay [2], in assay [3], in [4], in [5] and in assay [6] was over 100 µM throughout. In addition, the TGI in assay [11], in assay [7], in assay [8] and in assay [9] was over 100 µM in each case.
Regarding `CC1[C@@H](OCc2ccccc2)COC(=O)N1Cc1ccccc1` (stereo not given in full), the TGI was 92.9 µM in assay [1]; over 100 µM in [10]; over 100 µM in assay [2]; over 100 µM in [3]; over 100 µM in [5]; over 100 µM in assay [7]. The TGI in assay [8] and in assay [9] was over 100 µM in each case.
With `CCOC(=O)CC[C@@H](NC(=O)c1ccc(N[C@@H]2c3cc4c(cc3C(c3cc(OC)c(O)c(OC)c3)C3C(=O)OC[C@@H]32)OCO4)cc1)C(=O)OCC` (stereo not given in full), the TGI in assay [1] was 0.0808 µM; in assay [10] it was over 10 µM; in assay [2] it was 0.236 µM; in assay [3], over 10 µM; in [4], 0.0478 µM; in assay [5], 0.0656 µM. Moreover, the TGI is 0.0668 µM in assay [6], 0.144 µM in assay [7], 0.116 µM in assay [8] and over 10 µM in assay [9].
Consider `N#CC12C3C4CC5C6C4C1C6C(O)(C53)N2Cc1ccccc1` (stereo not given), for which the TGI in [1], in assay [10], in assay [2], in [3], in [4] and in assay [5] was over 100 µM each time. In addition, the TGI in assay [6], in assay [11], in assay [7], in [8] and in [9] was over 100 µM each time.
As for `CCN(CC)Cc1cc(Nc2c3ccccc3nc3c2[nH]c2ccccc23)ccc1O`, the TGI in [1] was 3.46 µM; in assay [10], 5.83 µM; in [2], 3.31 µM; in assay [3] it was over 100 µM; in [4], 2.74 µM; in [5] it was 6.83 µM. Moreover, the TGI in [6] came to 2.97 µM; in assay [11], 2.77 µM; in assay [7] it was 3.51 µM; in assay [8], 5.03 µM.
With `O=c1cc2ccccc2nn1-c1ccccc1Cl`, the TGI in assay [1], in assay [10], in assay [2], in [3], in [4] and in assay [5] was over 100 µM throughout. For the same compound, the TGI in assay [6], in [7], in assay [8] and in assay [9] was over 100 µM each time.
`O=C1CCCc2cc3c(cc21)CCC3C(=O)O` (stereo not given): the TGI in [10], in [2], in assay [3], in [4], in assay [5] and in assay [11] was over 100 µM in each case. The TGI in assay [7], in assay [8], in [12] and in [9] was over 100 µM in each case.
Regarding `CC1=NN(C(=O)Cc2ccccc2)C(=O)/C1=C\C=C\c1ccccc1`, the TGI in assay [10], in [2], in assay [3], in assay [4], in [7] and in [8] was over 100 µM each time. The same compound yielded a TGI in assay [9] of over 100 µM.
Take `COC(=O)CC1C(=O)OCc2c1cc1n(c2=O)Cc2c-1nc1ccccc1c2OC` (stereo not given): the TGI in assay [1], in assay [10], in assay [2], in assay [3], in assay [5] and in assay [6] was over 100 µM in each case. Moreover, the TGI in [11] was 70.2 µM; in [7], over 100 µM; in assay [8], over 100 µM; in [9], over 100 µM.
On to `Cc1cc2oc(=O)[nH]c(=S)c2c(C)c1C`, for which the TGI in assay [1], in assay [10], in assay [2], in assay [3], in assay [4] and in assay [5] was over 100 µM each time. Besides, the TGI in assay [6], in assay [11], in assay [8] and in assay [9] was over 100 µM each time.
On to `COC(=O)C1(O)c2ccccc2N=C2C(=O)c3ccccc3N21` (stereo not given), for which the TGI in assay [1], in assay [10], in assay [2], in assay [3], in assay [4] and in assay [6] was over 100 µM each time. The TGI in [11], in assay [7] and in assay [9] was over 100 µM each time.
`COC(=O)N/N=C/c1oc(-c2cccc([N+](=O)[O-])c2)c(-c2cccc([N+](=O)[O-])c2)c1[N+](=O)[O-]`: the TGI in assay [1], in assay [10], in [3], in [5], in assay [11] and in assay [7] was over 100 µM each time. Also, the TGI in assay [8] is over 100 µM; in assay [9], 78.3 µM.
As for `COC[n+]1cc2cc(OC)c(OC)cc2c2ccc3cc(OC)c(OC)cc3c21`, the TGI in assay [1], in assay [10], in assay [2], in assay [3], in [4] and in [11] was over 100 µM in each case. Moreover, the TGI in [7], in [8] and in [9] was over 100 µM each time.
Consider `COC(=O)c1c(C(=O)OC)c2cc(C(=O)c3ccccc3)ccn2c1Cl`, for which the TGI in assay [10] is 51.7 µM; in [2], over 100 µM; in assay [3], over 100 µM; in [4] it was over 100 µM; in assay [11], 85 µM; in assay [7], 33.2 µM. The values for the TGI in assay [8] and in assay [9] were over 100 µM and 78 µM, respectively.
Turning to `S=C(Nc1cccc(Cl)c1)Nc1ccccn1`, the TGI in assay [10], in assay [2], in assay [3], in [4], in assay [5] and in assay [11] was over 100 µM throughout. Besides, the TGI in assay [7], in assay [8], in assay [12] and in assay [9] was over 100 µM throughout.
Turning to `Cc1ccccc1N(C)S(=O)(=O)c1ccccc1[N+](=O)[O-]`, the TGI in assay [10] is over 100 µM; in assay [2] it was over 100 µM; in assay [3], over 100 µM; in [4], over 100 µM; in [5], over 100 µM; in [11], 83 µM. In addition, the TGI was 30.7 µM in assay [7], over 100 µM in assay [8], over 100 µM in assay [12] and over 100 µM in assay [9].
